Test results reported in US20100086519A1, “Treatment of Hepatitis C Infection With Metalloporphyrins” (The Charlotte-Mecklenburg Hospital Authority d/b/a …, priority 2008, published 2010).

Assays:
[1] = target: T1, HCV NS5A protein (Hepatitis C virus genotype 1b, UniProt Q9WMX2, S2204I); test: NS5A protein levels by Western blot in Con1 cells; type: cell-based; conditions: ZnMP 0, 1, 5, 10 μM, 4 hours, FIG. 1B
T1 construct: processed into structural (C, E1, E2) and nonstructural (NS2, NS3, NS4A, NS4B, NS5A and NS5B) proteins; expressed in transfected cells; host or cells: Con1 cells (Huh-7.5 with the full-length genotype 1b replicon)
T1 sequence (Q9WMX2 1973-2419 S2204I): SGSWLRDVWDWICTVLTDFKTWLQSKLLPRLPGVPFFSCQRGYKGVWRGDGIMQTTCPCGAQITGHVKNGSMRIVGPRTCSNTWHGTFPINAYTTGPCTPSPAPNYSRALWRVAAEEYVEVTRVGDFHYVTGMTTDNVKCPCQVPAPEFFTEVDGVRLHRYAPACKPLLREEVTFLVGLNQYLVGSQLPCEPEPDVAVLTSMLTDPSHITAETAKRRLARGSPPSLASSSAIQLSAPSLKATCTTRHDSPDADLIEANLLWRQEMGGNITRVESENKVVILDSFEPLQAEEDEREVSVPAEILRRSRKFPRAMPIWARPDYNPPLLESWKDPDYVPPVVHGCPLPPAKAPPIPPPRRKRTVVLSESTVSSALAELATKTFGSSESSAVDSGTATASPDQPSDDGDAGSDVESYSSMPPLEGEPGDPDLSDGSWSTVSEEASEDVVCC
Description: (§1) Bartenschlager (University of Heidelberg, Heidelberg, Germany).
(§2) Biochim Biophys Acta 2008; 1779:195-203.

[2] = test system: HCV core, NS5A; test: HCV protein levels by Western blot in Con1 cells, 24 hours; type: cell-based, hepatitis C virus; conditions: different concentrations, FIG. 7B
Description: as §1, §2
(§3) Total RNA and proteins were extracted.

[3] = target: T2, HCV NS5A protein (Hepatitis C virus genotype 2a, UniProt Q99IB8); test: NS5A protein levels in Huh-7.5 cells transfected with J6/JFH1 RNA; type: cell-based; conditions: J6/JFH1 RNA transfected Huh-7.5 cells, 4 or 24 h, FIGS. 8A-8D
T2 construct: processed into structural (C, E1, E2) and nonstructural (NS2, NS3, NS4A, NS4B, NS5A and NS5B) proteins; expressed in transfected cells; host or cells: Huh-7.5 cells transfected with in vitro transcribed J6/JFH1 RNA
T2 sequence (Q99IB8 1977-2442): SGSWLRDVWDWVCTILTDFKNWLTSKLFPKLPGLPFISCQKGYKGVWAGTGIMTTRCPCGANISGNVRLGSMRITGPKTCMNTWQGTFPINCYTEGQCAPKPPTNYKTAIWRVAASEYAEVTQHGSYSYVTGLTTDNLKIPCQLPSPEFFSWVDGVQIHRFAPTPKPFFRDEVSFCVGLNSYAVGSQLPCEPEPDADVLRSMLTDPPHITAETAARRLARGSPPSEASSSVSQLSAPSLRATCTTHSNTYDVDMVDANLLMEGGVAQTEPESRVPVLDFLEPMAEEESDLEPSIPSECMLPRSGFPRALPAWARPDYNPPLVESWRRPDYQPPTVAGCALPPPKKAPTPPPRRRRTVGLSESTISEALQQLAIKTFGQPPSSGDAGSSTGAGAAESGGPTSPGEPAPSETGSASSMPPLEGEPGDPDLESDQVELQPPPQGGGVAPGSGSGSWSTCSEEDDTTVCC
Description: as §2
Rice (the Rockefeller University, New York, N.Y.).

[4] = test system: HCV core protein; conditions: Huh-7/T7 cells, pFK-Con1/GDD, FIG. 7D; much less than in Con1 replicon system
Description: In brief, total proteins (30-50 μg) were separated on 4-15% gradient SDS-PAGE gels. After electrophoretic transfer onto ImmunBlot PVDF membrane, membranes were blocked for 1 hour in PBS containing 5% nonfat dry milk and 0.1% Tween-20, and then incubated overnight with primary antibody at 4° C. The dilutions of the primary antibodies were as follows: 1:2000 for anti-HCV NS5A and anti-GAPDH antibodies, and 1:5000 for anti-HCV core antibody. The membranes were then incubated for 1 hour with horseradish peroxidase-conjugated secondary antibodies (dilution 1:10,000). Finally, the bound antibodies were visualized with the ECL-Plus chemiluminescence system according to the manufacturer's protocol. A Kodak 1DV3.6 computer-based imaging system (Rochester, N.Y.) was used to measure the relative optical density of each specific band obtained after Western blotting. Data are expressed as percentages of the controls (corresponding to the value obtained with the vehicle-treated cells), which were assigned values of one. […]
To evaluate whether ZnMP-mediated degradation of NS5A may play a role in inhibiting HCV replication, Con1 full-length HCV replicon Huh-7.5 cells were treated with different concentrations of ZnMP for 24 hours. […] HCV virus RNA was quantified by qRT-PCR, and the levels of HCV core, NS5A and GAPDH protein were measured by Western blots. […]

[5] = target: T3, HCV NS5A protein (Hepatitis C virus genotype 1b, UniProt Q9WMX2); test: NS5A protein levels in Huh-7/T7 cells transfected with pFK-Con1/GND; type: cell-based; parameters: processed into structural (C, E1, E2) and nonstructural (NS2, NS3, NS4A, NS4B, NS5A and NS5B) proteins; expressed in transfected cells; host or cells: Huh-7/T7 cells transiently transfected with pFK-Con1/GND; conditions: 24 h, FIG. 7C
T3 sequence (Q9WMX2 1973-2419): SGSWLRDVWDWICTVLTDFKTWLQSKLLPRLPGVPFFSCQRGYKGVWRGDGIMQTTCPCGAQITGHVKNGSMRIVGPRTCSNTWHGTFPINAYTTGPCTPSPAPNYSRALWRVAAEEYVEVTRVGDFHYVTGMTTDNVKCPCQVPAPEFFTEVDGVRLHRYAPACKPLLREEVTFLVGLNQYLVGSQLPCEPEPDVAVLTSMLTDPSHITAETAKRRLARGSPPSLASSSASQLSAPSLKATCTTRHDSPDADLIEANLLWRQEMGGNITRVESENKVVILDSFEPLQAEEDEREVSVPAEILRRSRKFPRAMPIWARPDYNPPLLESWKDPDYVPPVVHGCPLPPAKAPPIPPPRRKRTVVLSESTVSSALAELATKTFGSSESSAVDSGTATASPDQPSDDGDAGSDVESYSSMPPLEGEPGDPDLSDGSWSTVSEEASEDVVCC
Description: as §2, §3

[6] = target: T3, HCV NS5A protein; test: NS5A protein levels by Western blot in 9-13 cells; type: cell-based; parameters: processed into structural (C, E1, E2) and nonstructural (NS2, NS3, NS4A, NS4B, NS5A and NS5B) proteins; expressed in transfected cells; host or cells: 9-13 cells (human hepatoma cells with a replicating HCV NS3-NS5B region)
Description: as §1, §2

CCC1=C(C)c2cc3[nH]c(cc4nc(cc5[n-]c(cc1n2)c(C)c5CCC(=O)[O-])C(CCC(=O)[O-])=C4C)c(C)c3CC.[H+].[Zn+2] [ZnMP, Zinc mesoporphyrin]
NS5A protein levels [1]: marked decrease
HCV protein levels [2]: dose-dependent reduction
NS5A protein levels [3]: rapid and profound decrease
HCV core protein levels [4]: reduction of core
NS5A protein levels [5]: markedly decreased
NS5A protein levels ([6]; 9-13 cells, 10 μM ZnMP alone, 10 and 24 hours, FIG. 9B): slightly increased
NS5A protein levels ([6]; 9-13 cells, 10 μM ZnMP alone, as little as 2 hours, FIG. 9B): rapid and marked down-regulation
NS5A protein levels, time course ([6]; 9-13 cells, 10 μM, 0, 2, 4, 6 h, FIG. 2B): markedly and rapidly decreased
NS5A protein levels before immunoprecipitation ([6]; 9-13 cells, 10 μM, 4 h, FIG. 6A): down-regulation
NS5A protein levels ([6]; 9-13 cells, 10 μM, 4 hours, FIG. 2A): decreased
NS5A protein levels ([6]; 9-13 cells, ZnMP 0, 1, 5, 10 μM, 4 hours, FIG. 1A): marked decrease
reduction of NS5A protein levels ([6]; about 1 μM, 4 hours, stated for bar graphs of FIGS. 1A/1B (9-13 and Con1 cells)): about 60%
